{
  "source": "paper PMC7481839",
  "about": "“Switchable foldamer ion channels with antibacterial activity” (Chemical Science, 2020)",
  "assay": "Planar bilayer conductance (PBC) studies",
  "type": "biochemical",
  "details": "+100 or –100 mV, 50 s sweeps, up to 2 h, final concentration 8.3 µM, 20 mM MOPS, 100 mM NaCl or KCl, pH 7.4",
  "protocol": "The observation of discrete conductance events can indicate channel formation and provide information on the nature of these channels.\nPBC experiments were performed in a custom-built cell, with either 2 or Cu(II)[2]Cl2 (5–10 μL of a 1 mM solution in MeOH) added to the ground well. Characterisation sweeps were continued for 2 h, or until substantial channel-forming activity was observed. Single channel experiments were conducted under an applied potential of +100 or –100 mV in 50 s sweeps. […] Large current levels and reproducible well-defined quantized steps from 0.5 to 5 ms in duration (similar to the “flicker” behaviour described by Chui and Fyles[42]) were measured (Fig. 6). […] This could imply [Cu(II)[2]Cl]^+ cations[44] are involved in the channel-forming species. Channel events have multilevel conductances, both at +100 mV (∼0.08 nS, ∼0.14 nS) and at –100 mV potentials (∼0.08 nS, ∼0.15 nS).\nThe blue product from the addition of CuCl to 2 was also assessed using PBC experiments. […] In addition, much longer lived “square topped” openings could also be observed (Fig. 6b). These very regular well-defined quantized current steps were open for up to 20 ms at +100 mV, with multiple stepwise increases in conductance with ∼0.18 nS increments.[46] […]",
  "note": "Where a SMILES comes first, the peptide text is derived from it.",
  "data": [
    {"smiles": "CC(C)(NC(=O)C(C)(C)NC(=O)C(C)(C)NC(=O)C(C)(C)NC(=O)C(C)(C)n1cc(CN(Cc2ccccn2)Cc2ccccn2)nn1)C(=O)NC(C)(C)C(=O)NC(C)(C)C(=O)NC(C)(C)C(=O)OCC[Si](C)(C)C", "note": "[foldamer 2] (HELM PEPTIDE1{[CC(C)(C(=O)[*:2])n1cc(CN(Cc2ccccn2)Cc2ccccn2)nn1].[Aib].[Aib].[Aib].[Aib].[Aib].[Aib].[Aib].[C[Si](C)(C)CCO[*:1]]}$$$$V2.0)", "values": [
      {"measurement": "ion channel behaviour in PBC", "result": "did not display any ion channel behaviour"}
    ]}
  ]
}
